What was measured:
[1] = biological target: T1, Solute carrier family 22 member 3 (Homo sapiens, UniProt O75751); experiment: TP_TRANSPORTER: inhibition of MPP+ uptake (MPP+: 0.025 uM) in OCT3-expressing HEK293 cells
T1 sequence (O75751 whole entry): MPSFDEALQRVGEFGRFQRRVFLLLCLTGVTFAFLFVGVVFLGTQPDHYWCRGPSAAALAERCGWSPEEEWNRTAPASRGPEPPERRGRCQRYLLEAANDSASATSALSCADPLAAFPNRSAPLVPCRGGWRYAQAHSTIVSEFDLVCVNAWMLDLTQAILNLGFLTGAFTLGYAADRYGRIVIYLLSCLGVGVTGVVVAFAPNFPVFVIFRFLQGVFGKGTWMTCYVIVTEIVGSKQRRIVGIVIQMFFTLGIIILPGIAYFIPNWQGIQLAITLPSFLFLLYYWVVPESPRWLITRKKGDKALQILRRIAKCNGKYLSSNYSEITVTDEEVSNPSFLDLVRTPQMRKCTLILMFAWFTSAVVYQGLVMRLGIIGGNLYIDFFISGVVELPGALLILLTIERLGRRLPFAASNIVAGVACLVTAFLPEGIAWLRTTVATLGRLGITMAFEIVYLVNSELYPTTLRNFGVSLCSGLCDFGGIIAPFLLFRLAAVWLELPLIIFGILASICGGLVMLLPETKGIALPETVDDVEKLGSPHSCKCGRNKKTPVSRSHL

[2] = biological target: T2, Solute carrier family 22 member 2 (Homo sapiens, UniProt O15244); experiment: TP_TRANSPORTER: inhibition of MPP+ uptake (MPP+: 0.025 uM) in OCT2-expressing HEK293 cells
T2 sequence (O15244 whole entry): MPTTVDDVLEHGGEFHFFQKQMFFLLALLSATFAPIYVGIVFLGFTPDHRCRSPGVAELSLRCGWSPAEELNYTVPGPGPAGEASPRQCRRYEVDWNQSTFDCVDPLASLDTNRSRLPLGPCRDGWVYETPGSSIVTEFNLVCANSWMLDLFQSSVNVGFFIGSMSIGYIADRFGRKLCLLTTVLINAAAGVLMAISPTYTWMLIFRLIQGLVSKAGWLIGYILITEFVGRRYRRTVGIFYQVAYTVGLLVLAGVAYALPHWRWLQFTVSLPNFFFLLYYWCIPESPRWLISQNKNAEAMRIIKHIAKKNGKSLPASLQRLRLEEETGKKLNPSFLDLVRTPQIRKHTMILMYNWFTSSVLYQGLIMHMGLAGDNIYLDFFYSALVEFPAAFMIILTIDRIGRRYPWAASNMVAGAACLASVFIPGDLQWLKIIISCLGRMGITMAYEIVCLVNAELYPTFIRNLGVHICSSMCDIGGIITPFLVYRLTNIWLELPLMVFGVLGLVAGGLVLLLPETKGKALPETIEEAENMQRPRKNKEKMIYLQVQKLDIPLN

[3] = biological target: T3, Solute carrier family 22 member 1 (Homo sapiens, UniProt O15245); experiment: TP_TRANSPORTER: inhibition of MPP+ uptake (MPP+: 0.025 uM) in OCT1-expressing HEK293 cells
T3 sequence (O15245 whole entry): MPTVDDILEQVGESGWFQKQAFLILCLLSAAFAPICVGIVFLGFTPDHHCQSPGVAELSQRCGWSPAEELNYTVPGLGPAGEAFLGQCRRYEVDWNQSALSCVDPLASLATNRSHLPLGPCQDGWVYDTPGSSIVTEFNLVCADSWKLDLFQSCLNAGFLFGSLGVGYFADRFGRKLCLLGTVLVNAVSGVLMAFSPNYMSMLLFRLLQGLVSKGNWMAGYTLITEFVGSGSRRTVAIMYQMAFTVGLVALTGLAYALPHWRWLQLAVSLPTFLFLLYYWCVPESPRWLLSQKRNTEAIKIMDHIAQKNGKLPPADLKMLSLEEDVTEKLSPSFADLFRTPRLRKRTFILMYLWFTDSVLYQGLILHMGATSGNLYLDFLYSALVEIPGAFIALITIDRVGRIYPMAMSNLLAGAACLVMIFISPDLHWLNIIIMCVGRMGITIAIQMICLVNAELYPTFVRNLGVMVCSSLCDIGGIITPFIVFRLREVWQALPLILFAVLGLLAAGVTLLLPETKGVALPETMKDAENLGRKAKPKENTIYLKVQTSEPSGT

Compound	IC50 [1]	IC50 [2]	IC50 [3]
CCN1/C(=C/c2ccc3ccccc3[n+]2CC)C=Cc2ccccc21	90 nM	1130 nM	980 nM
CN(CCCl)C1c2ccccc2-c2ccccc21	50 nM	100 nM	> 300 nM
COc1cc(C(O)CNC(C)C)ccc1O (stereo not given) [METIPRENALINE]	4380 nM	> 100000 nM	> 100000 nM
C[C@]12C[C@H](O)[C@H]3[C@@H](CCC4=CC(=O)CC[C@@]43C)[C@@H]1CC[C@@H]2C(=O)CO [CORTICOSTERONE]	290 nM	34200 nM	21700 nM
COc1cc2nc(N3CCN(C(=O)c4ccco4)CC3)nc(N)c2cc1OC [PRAZOSIN]	12600 nM	–	1840 nM
C[C@]12CC[C@@H]3c4ccc(O)cc4CC[C@H]3[C@@H]1CC[C@@H]2O [ESTRADIOL]	2880 nM	–	5730 nM
CC(COc1ccccc1)N(CCCl)Cc1ccccc1 (stereo not given) [PHENOXYBENZAMINE]	6130 nM	–	2720 nM
CC(=O)[C@H]1CC[C@H]2[C@@H]3CCC4=CC(=O)CC[C@]4(C)[C@H]3CC[C@]12C [PROGESTERONE]	4280 nM	–	3050 nM
